How the values were obtained:
[1] = test system: Hep G2 (Human hepatocyte carcinoma); test: In vitro inhibition of HepG2 cells (cytotoxicity); format: cell-based; conditions: read-out: Hs HepG2 PEC50 (converted)
From the text: Assay Method for Measurement of In Vitro Inhibition of HepG2 Cells (Cytotoxicity)
These experiments were run in accordance with the method of Mersch-Sundermann V et. al. Toxicology 2004, 198:329-340

Cryptosporidium parvum = test: In vitro inhibition of Cryptosporidium (method of Bessoff et al.); format: cell-based; conditions: read-out: C. parvum PEC50 (converted)
From the text: Assay Method for Measurement of In Vitro Inhibition of Cryptosporidium
These experiments were run in accordance with the method of Besssoff et. al. Antimicrob. Agents Chemother. 2013, 57:1804-1814. Results from these experiments are provided in the Experimental Results hereinafter.

[2] = target: T1, Human lysyl tRNA Synthetase (KRS) (Homo sapiens, UniProt Q15046); test: In vitro inhibition of human lysyl tRNA synthetase (KRS), Biomol green phosphate detection; format: biochemical; conditions: 3.5 μM ATP, 6 μM L-Lysine, 5 h room temperature; read-out: Hs KRS pIC50 (converted)
T1 construct: His tag with PreScission site (His PP pET15b); made in house; host or cells: E. coli BL21 (DE3)
T1 sequence (Q15046 whole entry): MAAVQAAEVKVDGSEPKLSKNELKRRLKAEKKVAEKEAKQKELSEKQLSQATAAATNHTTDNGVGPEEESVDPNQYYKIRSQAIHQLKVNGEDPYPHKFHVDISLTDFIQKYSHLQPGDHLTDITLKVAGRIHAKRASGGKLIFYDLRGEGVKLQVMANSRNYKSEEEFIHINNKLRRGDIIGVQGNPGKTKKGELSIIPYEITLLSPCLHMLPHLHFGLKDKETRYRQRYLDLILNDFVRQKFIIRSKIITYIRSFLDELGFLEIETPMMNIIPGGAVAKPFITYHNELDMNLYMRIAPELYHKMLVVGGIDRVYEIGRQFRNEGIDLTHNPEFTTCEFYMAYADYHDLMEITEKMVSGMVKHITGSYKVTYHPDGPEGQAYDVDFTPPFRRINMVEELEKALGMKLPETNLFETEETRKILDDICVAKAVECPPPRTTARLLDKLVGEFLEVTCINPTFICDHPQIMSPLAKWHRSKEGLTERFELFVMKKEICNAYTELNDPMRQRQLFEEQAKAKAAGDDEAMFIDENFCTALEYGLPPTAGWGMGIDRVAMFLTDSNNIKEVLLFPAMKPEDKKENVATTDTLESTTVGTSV
Method: The gene coding for Human KRS, codon optimized for expression in E. coli, was obtained from Genscript and cloned into a His PP pET15b vector using Nde1 and Xho1 restriction sites. The resulting vector was used to transform BL21 (DE3) competent cells for protein expression. A 120 ml overnight culture was set up and grown at 37° C. 200 rpm for 16 h and used the next day to inoculate 6 litres of Autoinduction+AMP medium. This culture was grown at 37° C. for 4 h then 20° C. for 20 h. The cells were harvested by centrifugation at 3,500 g for 30 min then stored at −20° C. The resulting cell pellet was 50 g. Lysis buffer (150 ml, 25 mM HEPES/500 mM NaCl/20 mM imidazole/2 mM DTT/10% glycerol pH 7.5/protease inhibitor tablets/DNAase) was added and the pellets for defrosted at room temperature for approximately 10 min. The slurry was then passed through a Cell Disrupter (Constant Systems) set at […] to lyse the cells. The sample was then centrifuged at 40,000 g for 20 min. The supernatant was then filtered using syringe filters to 0.45 μm. The supernatant was loaded onto a 5 ml HiTrap Ni HP column that had been equilibrated with BufferA (25 mM HEPES/500 mM NaCl/20 mM Imidazole/2 mM DTT/10% Glycerol pH 7.5) at 5 ml/min using an AKTA Pure system. Once loaded the column was washed with 10 column volumes buffer A. A 5% step of Buffer B (25 mM HEPES/500 mM NaCl/500 mM Imidazole/2 mM DTT/10% Glycerol pH 7.5) was then used to wash off His rich contaminating proteins. A gradient of 5-50% B was used to elute the protein. Approximately 55 mg of protein was present in the fractions containing the HsKRS protein. The sample was then passed through a 0.2 μm filter, before loading onto a XK26/60 Superdex 200 column equilibrated with Buffer C (25 mM HEPES/150 mM NaCl/2 mM DTT/10% glycerol pH 7.0) using an AKTA Pure system at 4° C. at 2 ml/min. The sample was then dialyzed into 25 mM HEPES/500 mM NaCl//2 mM DTT/10% glycerol/0.25% azide pH 7.0. The protein was concentrated to 1 mg/ml and frozen at −80° C. Approximately 23 mg of protein was produced.
Assay Method for Measurement of In Vitro Inhibition of Human lysyl tRNA Synthetase (KRS)
Potency of compounds was determined in 10 points dose-response inhibition curves. Compounds were transferred into 384-well clear bottom plates (Greiner Bio-One, 781101) using an Echo 550 acoustic dispenser (Labcyte). Using an automatic liquid dispenser, 50 μL reaction mixes were prepared by adding 25 μL of substrate mix into all wells followed by the addition of 25 μL enzyme mix into all wells (final reaction: 30 mM Tris-HCl, pH 8.0, 40 mM MgCl2, 140 mM NaCl, 30 mM KCl, 0.01% Brij-35, 1 mM DTT, 3.5 μM ATP, 6 μM L-Lysine, 200 nM […] and 0.5 U/mL Pyrophosphatase). Complete inhibition control reactions were performed in the presence of 100 μM of control compoundand the plates were incubated at room temperature for 5 h. Reactions were stopped by the addition of Biomol green (50 μL: Enzo Life Sciences) with the amount of free phosphate detected by measuring absorbance (650 nm) after 20 min further incubation (BMG Pherastar plate reader). Counter screen assays to eliminate direct inhibition of pyrophsphatase were performed using 0.5 U/mL pyrophosphatase and 3 μM pyrophosphate as substrate in the same assay buffer (30 mM Tris-HCl, pH 8.0, 40 mM MgCl2, 140 mM NaCl, 30 mM KCl, 0.01% Brij-35, 1 mM DTT) for 5 hours at room temperature. Biomol green was added and incubated for 20 min before detection as above. Samples were run in duplicate and data was processed and analysed using ActivityBase (IDBS).

[3] = target: Cryptosporidium parvum lysyl t-RNA synthetase (Cp KRS) (Cryptosporidium parvum, UniProt Q5CR27); test: In vitro inhibition of Cryptosporidium lysyl tRNA synthetase (KRS), Biomol green phosphate detection; format: biochemical; conditions: 300 nM CpKRS, 500 μM ATP, 1.2 mM L-Lysine, 8 h room temperature; read-out: C. parvum KRS pIC50 (converted)
Chain of Cryptosporidium parvum lysyl t-RNA synthetase (Cp KRS) (Q5CR27 entry or part of it): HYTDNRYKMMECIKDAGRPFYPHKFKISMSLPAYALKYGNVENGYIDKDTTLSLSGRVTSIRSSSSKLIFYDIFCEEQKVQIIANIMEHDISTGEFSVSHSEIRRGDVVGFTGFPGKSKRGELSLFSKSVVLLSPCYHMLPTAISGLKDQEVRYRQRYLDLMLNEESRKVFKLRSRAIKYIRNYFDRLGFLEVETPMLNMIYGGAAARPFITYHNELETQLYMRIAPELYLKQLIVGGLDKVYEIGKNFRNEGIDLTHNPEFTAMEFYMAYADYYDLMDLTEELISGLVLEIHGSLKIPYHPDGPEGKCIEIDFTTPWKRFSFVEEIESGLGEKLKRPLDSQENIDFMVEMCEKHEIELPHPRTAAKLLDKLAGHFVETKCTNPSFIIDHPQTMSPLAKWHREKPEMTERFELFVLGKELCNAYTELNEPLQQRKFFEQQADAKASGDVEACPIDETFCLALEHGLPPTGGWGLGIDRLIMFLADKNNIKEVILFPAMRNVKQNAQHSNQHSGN
From the text: The protein expression and purification method for recombinant CpKRS was described in Baragana et aL, PNAS, 2019, 116 (4), 7015-7020 and will be summarised below.
The C. parvum KRS had 45 residues removed at the N-terminus. All amplicons were cloned into the pAVA0421 expression vector using the ligation independent cloning (LIC) method. Recombinant plasmids were transformed into Rosetta BL21(DE3) competent cells and plated on LB agar plates with ampicillin, carbenicillin, and chloramphenicol selection. Clones were expressed using previously reported autoinduction methods and scaled to 2-litre cultures in a shake flasks. Cell pellets were harvested and lysed with 100 mM HEPES/150 mM NaCl/5% Glycerol/20 mM imidazole/0.5 mM TCEP pH 7.5/DNase/Complete inhibitor tablets) using a Cell Disrupter (Constant Systems) at 30 KPSI and centrifuged at 40,000 g for 20 min remove cell debris. The supernatant was loaded onto a 5 ml HiTrap Ni HP column that had been equilibrated with Buffer A (100 mM HEPES/150 mM NaCl/5% Glycerol/20 mM imidazole/0.5 mM TCEP pH 7.5) at 5 ml/min using an AKTA Pure system. Once loaded the column was washed with 10 column volumes of buffer A. A 5% step of Buffer B (100 mM HEPES/150 mM NaCl/5% Glycerol/500 mM imidazole/0.5 mM TCEP pH 7.5) was then used to wash off His-rich contaminating proteins. A linear gradient of 5-50% B was used to elute the protein. Approximately 287 mg of protein was present in the fractions containing the CpKRS protein. The sample was then concentrated to approximately 30 ml, passed through a 0.2 μm filter, before loading onto a XK26/60 Superdex 200 column using an AKTA Pure system at 4° C. at 2 ml/min 10 ml at a time. The eluted protein was pooled then frozen at −80° C. The concentration of the protein was 1.3 mg/ml. Sometimes the protein was cleaved with PreScission protease overnight, a second Ni column performed in flow through mode to removed uncleaved protein. GST beads were then added to remove the PreScission Protease. The protein was then gel filtered as descripted above.
Assay Method for Measurement of In Vitro Inhibition of Cryptosporidium lysyl tRNA Synthetase (KRS)
Potency of compounds was determined in 10 points dose-response inhibition curves. Compounds were transferred into 384-well clear bottom plates (Greiner Bio-One, 781101) using an Echo 550 acoustic dispenser (Labcyte). Using an automatic liquid dispenser, 50 μL reaction mixes were prepared by adding 25 μL of substrate mix into all wells followed by the addition of 25 μL enzyme mix into compounds and no inhibition control wells (final reaction: 100 mM HEPES, pH 7.4, 20 mM MgCl2, 1 mM DTT, 500 μM ATP, 1.2 mM L-Lysine, 300 nM CpKRS and 0.5 U/mL Pyrophosphatase). Complete inhibition control reactions were performed in the absence of enzyme and the plates were incubated at room temperature for 8 h. Reactions were stopped by the addition of Biomol green (50 μL: Enzo Life Sciences) with the amount of free phosphate detected by measuring absorbance (650 nm) after 20 min further incubation (BMG Pherastar plate reader). Counter screen assays to eliminate direct inhibition of pyrophosphatase were performed using 0.5 U/mL pyrophosphatase and 3 μM pyrophosphate as substrate in the same assay buffer (100 mM HEPES, pH 7.4, 20 mM MgCl2, 1 mM DTT) for 8 hours at room temperature. Biomol green was added and incubated for 20 min before detection as above. Samples were run in duplicate and data was processed and analysed using ActivityBase (IDBS).

Cryptosporidium = conditions: Cryptosporidium-HIV co-infected patients not co-treated with HIV antiretroviral therapy; cited from earlier work
PfLysRS = PfLysRS (Plasmodium falciparum, UniProt Q8IDJ8); conditions: Hoepfner et al, Cell Host Microbe, 2012; cited from earlier work
Chain of PfLysRS (Q8IDJ8 1-583): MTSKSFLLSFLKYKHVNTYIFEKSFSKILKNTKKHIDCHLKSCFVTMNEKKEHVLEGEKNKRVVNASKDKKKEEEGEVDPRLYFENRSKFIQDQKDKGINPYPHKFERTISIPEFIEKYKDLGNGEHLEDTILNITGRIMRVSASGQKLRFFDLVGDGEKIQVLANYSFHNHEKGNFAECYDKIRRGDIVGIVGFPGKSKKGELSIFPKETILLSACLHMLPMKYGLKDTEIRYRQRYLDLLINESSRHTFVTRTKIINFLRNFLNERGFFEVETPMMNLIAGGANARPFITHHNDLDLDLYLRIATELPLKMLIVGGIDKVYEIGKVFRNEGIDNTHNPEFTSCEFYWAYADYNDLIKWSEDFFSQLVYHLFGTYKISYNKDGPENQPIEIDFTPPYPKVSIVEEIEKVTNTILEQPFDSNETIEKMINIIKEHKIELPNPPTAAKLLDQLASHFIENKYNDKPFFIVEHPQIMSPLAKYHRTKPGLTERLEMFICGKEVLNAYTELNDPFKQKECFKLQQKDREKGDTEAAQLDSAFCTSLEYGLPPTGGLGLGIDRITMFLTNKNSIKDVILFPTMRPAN

| EC50 (Cryptosporidium parvum) | IC50 [2] | IC50 [3] | SMILES | EC50 [1] | efficacy in clinical trials (Cryptosporidium) | selectivity for PfLysRS vs HsLysRS (PfLysRS) |
| --- | --- | --- | --- | --- | --- | --- |
|  | 63.1 µM | 15.8 µM | Nc1nc2c(c(C(F)(F)F)n1)C(=O)N(C[C@H]1CCC[C@H](C(F)(F)F)C1)C2 [Compound 7, 2-amino-4-(trifluoromethyl)-6-(((1S,3S)-3-(trifluoromethyl)cyclohexyl)methyl)-6,7-dihydro-5H-pyrrolo[3,4-d]pyrimidin-5-one] | 79.4 µM |  |  |
|  | > 100 µM | > 50.1 µM | Nc1nc2c(c(C(F)(F)F)n1)C(=O)N(C[C@H]1CCC[C@@H](C(F)(F)F)C1)C2 [Compound 6, 2-amino-4-(trifluoromethyl)-6-(((1S,3R)-3-(trifluoromethyl)cyclohexyl)methyl)-6,7-dihydro-5H-pyrrolo[3,4-d]pyrimidin-5-one] | > 100 µM |  |  |

More lines, now with the values behind:

| SMILES | EC50 (Cryptosporidium parvum) | IC50 [2] | IC50 [3] | EC50 [1] | efficacy in clinical trials (Cryptosporidium) | selectivity for PfLysRS vs HsLysRS (PfLysRS) |
| --- | --- | --- | --- | --- | --- | --- |
| Nc1nc2c(c(C(F)(F)F)n1)C(=O)N(C[C@@H]1CCC[C@@H](C(F)(F)F)C1)C2 [Compound 5, 2-amino-4-(trifluoromethyl)-6-(((1R,3R)-3-(trifluoromethyl)cyclohexyl)methyl)-6,7-dihydro-5H-pyrrolo[3,4-d]pyrimidin-5-one] | 50.1 nM | 20 µM | 1.58 µM | 15.8 µM |  |  |
| CC(=O)Oc1ccccc1C(=O)Nc1ncc([N+](=O)[O-])s1 [Nitazoxanide] |  |  |  |  | ineffective |  |
| C[C@H]1CCC[C@H](C[C@H]2Cc3cc(O)cc(O)c3C(=O)O2)O1 [Cladosporin, cladosporin] |  |  |  |  |  | more than 100 fold |

Source: patent US20250270216A1, “ANTI-INFECTIVE AGENTS” (UNIVERSITY OF DUNDEE, priority 2022, published 2025)
